From US20220144850A1, “INDOLO HEPTAMYL OXIME ANALOGUE AS PARP INHIBITOR” (Chia Tai Tianqing Pharmaceutical Group Co., Ltd., priority 2019, published 2022) come the findings set out here.

For orientation: IC50 means the midpoint of a concentration-inhibition curve.

One experiment deals with T1, CYP2C19 (Homo sapiens, UniProt P33261).
T1 construct: a human liver microsome solution; from tissue; host or cells: human liver microsomes
Nature of the experiment: Inhibition against cytochrome P450 isoenzyme, human liver microsomes. The class given is in vitro ADME. Here is the method:
(§1) Experimental Example 6: Study on Inhibition Against Cytochrome P450 Isoenzyme
(§2) The inhibition of the test compounds against different subtypes of the human cytochrome P450 isoenzyme was determined. Test compounds, a standard inhibitor (100×final concentration) and a mixed substrate working solution were prepared; the microsomes frozen in a refrigerator at −80° C. were taken out and thawed. 2 μL of a solution of the test compound and the standard inhibitor was added to corresponding wells, and 2 μL of a corresponding solvent was added to a non-inhibitor control (NIC) well and a blank control (Blank) well; then, 20 μL of a solution of mixed substrate was added to corresponding wells except for the Blank well (adding 20 μL of PB to the Blank well); a human liver microsome solution (marking the date after use and immediately putting back to a refrigerator) was prepared and then added to all wells at 158 μL per well; the sample plate was put into a 37° C. water bath for pre-incubation, and then a coenzyme factor (NADPH) solution was prepared; after 10 min, the NADPH solution was added to all the wells at 20 μL per well, and the sample plate was shaken to mix the mixture well and then incubated in a 37° C. water bath for 10 min; at corresponding time points, 400 μL of cold acetonitrile solution (internal standard: 200 ng/mL tolbutamide and labetalol) was added to stop the reaction; after being mixed well, the mixture in the sample plate was centrifuged at 4,000 rpm for 20 min to precipitate proteins; 200 μL of supernatant was collected and added into 100 μL of water, and the mixture was mixed well and then assayed by LC/MS/MS.

The next experiment has as its target T2, CYP1A2 (Homo sapiens, UniProt P05177).
T2 construct: a human liver microsome solution; from tissue; host or cells: human liver microsomes
T2 sequence (P05177 1-516): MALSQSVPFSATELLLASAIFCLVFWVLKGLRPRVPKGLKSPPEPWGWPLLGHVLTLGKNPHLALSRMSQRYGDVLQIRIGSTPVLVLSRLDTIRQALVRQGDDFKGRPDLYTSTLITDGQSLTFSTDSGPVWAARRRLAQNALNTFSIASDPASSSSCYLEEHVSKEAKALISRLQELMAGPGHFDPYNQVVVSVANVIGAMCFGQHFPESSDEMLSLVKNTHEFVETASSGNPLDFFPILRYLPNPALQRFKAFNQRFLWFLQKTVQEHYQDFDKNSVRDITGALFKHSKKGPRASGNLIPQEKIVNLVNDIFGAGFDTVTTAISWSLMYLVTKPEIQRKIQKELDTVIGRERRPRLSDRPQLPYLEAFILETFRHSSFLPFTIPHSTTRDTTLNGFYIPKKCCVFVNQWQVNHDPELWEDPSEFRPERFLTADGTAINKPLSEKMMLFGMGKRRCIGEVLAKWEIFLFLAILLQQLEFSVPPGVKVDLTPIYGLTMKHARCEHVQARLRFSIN
The description is as above. The class given is in vitro ADME. On the procedure:
as §1, §2

For a further experiment, the target named is T3, CYP2C9 (Homo sapiens, UniProt P11712).
T3 construct: a human liver microsome solution; from tissue; host or cells: human liver microsomes
Described as above. The class given is in vitro ADME. Here is the method:
as §1, §2

The next experiment addresses T4, CYP3A4-M (Homo sapiens, UniProt P08684).
T4 construct: a human liver microsome solution; from tissue; host or cells: human liver microsomes
Described as above. It counts as in vitro ADME. Here is the method:
as §1, §2

The target of a further experiment is T5, CYP2D6 (Homo sapiens, UniProt P10635).
T5 construct: a human liver microsome solution; from tissue; host or cells: human liver microsomes
The experiment is described as above. It counts as in vitro ADME. Here is the method: as §1, §2

Another experiment concerns the target T6, PARP1 (Homo sapiens, UniProt P09874).
T6 construct: purchased TREVIGEN
Nature of the experiment: PARP-1 enzymatic experiment (HT Universal Chemiluminescent PARP Assay kit). The class given is biochemical. The following applies: chemiluminescence. Here is the method: Experimental Example 1: PARP-1 Enzymatic Experiment
Experimental materials: test compounds; HT Universal Chemiluminescent PARP Assay kit (purchased from TREVIGEN); PBS (purchased from Wisent); Triton X-100 (purchased from Macklin); Envision multi-marker analyzer (PerkinElmer).
(I) Preparation of Reagents:
• 1. Washing solution: Triton X-100 was added to 1-fold PBS, and the final concentration of Triton X-100 was 0.1%. • 2. 1-fold PARP buffer: the 20-fold PARP buffer in the kit was subjected to 20-fold dilution with water to prepare a 1-fold PARP buffer. This buffer was used to prepare the compound, enzyme solution and substrate solution. • 3. 1-fold Strep-Diluent solution: the 10-fold Strep-diluent in the kit was subjected to 10-fold dilution with water to prepare a 1-fold Strep-diluent solution.
(II) Preparation of Test Compounds:
Test compounds were serially 5-fold diluted to the 8th concentration with a multichannel pipette, i.e. from 200 μM to 2.56 nM, with the DMSO concentration being 100%. 2 μL of each of the inhibitors at various concentration gradients was added to a compound intermediate plate, and 38 μL of the 1-fold PARP buffer was then added; the two were mixed well for use, and the DMSO concentration was 5%.
(III) Experimental Method:
• a) The 1-fold PARP buffer was added to a test plate at 50 μL per well and incubated at 25° C. for 30 min. • b) After the incubation was completed, the liquid in the test plate was discarded, and each of the compounds at various concentration gradients was pipetted from the compound intermediate plate and added into the test plate at 10 μL per well. A duplicate-well experiment was performed. • c) The test plate was added with the enzyme solution (0.5 IU) at 15 μL per well. The compound and enzyme were incubated together at 25° C. for 10 min. • d) After the incubation was completed, 25 μL of the 1-fold PARP Cocktail (comprising 2.5 μL of 10-fold PARP Cocktail, 2.5 μL of 10-fold Activated DNA and 20 μL of 1-fold PARP buffer) was added to each well of the test plate. The test plate was incubated at 25° C. for 1 h. The final concentration of the compound was 2 μM to 0.0256 nM, and the DMSO concentration was […]. • e) After the incubation was completed, the test plate was washed twice with 200 μL of washing solution per well and then washed twice with 200 μL of PBS per well. • f) Strep-HRP in the kit was subjected to 500-fold dilution with the 1-fold Strep-Diluent solution, added to the test plate at 50 μL per well, and then incubated at 25° C. for 1 h. • g) After the incubation was completed, the test plate was washed twice with 200 μL of washing solution per well and then washed twice with 200 μL of PBS per well.
PeroxyGlow A and B in the kit were mixed at ratio of 1:1, and the mixed solution was added to the test plate at 100 μL per well. Chemiluminescence was immediately read using a PerkinElmer Envision multi-marker analyzer with an integration time of 0.5 s.
Data analysis: the original data was converted to inhibition using the equation (sample−Min)/(Max−Min)×[…], and the IC50 value was then curve filled using four parameters (obtained from the “log(inhibitor) vs. response-variable slope” model in GraphPad Prism).

Molecules are shown by their SMILES.

T4 sequence (P08684 whole entry): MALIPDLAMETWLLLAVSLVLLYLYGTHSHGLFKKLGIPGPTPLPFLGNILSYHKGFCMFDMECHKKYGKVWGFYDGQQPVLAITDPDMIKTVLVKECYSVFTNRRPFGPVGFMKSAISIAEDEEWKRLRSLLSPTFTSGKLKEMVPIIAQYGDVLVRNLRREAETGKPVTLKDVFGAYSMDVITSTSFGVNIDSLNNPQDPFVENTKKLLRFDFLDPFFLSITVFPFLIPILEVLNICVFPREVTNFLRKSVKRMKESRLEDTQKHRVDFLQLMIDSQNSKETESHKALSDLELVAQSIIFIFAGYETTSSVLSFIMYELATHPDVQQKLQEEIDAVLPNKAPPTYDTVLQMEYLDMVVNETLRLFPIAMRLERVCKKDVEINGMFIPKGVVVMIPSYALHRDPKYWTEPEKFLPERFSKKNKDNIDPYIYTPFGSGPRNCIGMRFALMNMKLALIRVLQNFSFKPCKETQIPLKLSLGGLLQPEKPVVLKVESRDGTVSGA
T3 sequence (P11712 whole entry): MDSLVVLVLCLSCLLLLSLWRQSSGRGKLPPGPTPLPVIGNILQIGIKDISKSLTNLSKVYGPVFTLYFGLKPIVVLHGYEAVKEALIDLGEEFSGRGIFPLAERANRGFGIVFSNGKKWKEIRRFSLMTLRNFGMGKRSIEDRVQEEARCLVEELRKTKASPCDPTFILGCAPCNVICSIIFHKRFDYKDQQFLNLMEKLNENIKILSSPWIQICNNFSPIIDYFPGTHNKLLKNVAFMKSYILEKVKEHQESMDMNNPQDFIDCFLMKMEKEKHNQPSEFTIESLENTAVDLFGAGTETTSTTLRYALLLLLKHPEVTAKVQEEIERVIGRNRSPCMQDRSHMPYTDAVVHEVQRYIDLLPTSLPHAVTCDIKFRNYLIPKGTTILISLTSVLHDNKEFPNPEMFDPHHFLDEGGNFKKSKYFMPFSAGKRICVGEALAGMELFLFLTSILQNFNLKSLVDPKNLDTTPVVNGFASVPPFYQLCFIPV
T1 sequence (P33261 whole entry): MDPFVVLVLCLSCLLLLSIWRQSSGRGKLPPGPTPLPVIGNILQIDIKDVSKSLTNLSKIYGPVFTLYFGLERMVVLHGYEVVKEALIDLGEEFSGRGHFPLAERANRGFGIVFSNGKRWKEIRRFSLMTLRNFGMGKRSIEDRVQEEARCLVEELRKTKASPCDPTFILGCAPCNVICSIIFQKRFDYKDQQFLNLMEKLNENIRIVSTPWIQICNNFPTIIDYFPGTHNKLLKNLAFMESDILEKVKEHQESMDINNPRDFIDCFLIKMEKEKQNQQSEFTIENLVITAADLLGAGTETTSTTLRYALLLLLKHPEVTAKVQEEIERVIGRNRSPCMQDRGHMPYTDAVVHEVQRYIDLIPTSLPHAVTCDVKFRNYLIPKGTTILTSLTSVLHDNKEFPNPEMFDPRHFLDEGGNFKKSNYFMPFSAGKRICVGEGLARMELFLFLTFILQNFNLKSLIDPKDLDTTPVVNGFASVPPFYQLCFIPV
T6 sequence (P09874 whole entry): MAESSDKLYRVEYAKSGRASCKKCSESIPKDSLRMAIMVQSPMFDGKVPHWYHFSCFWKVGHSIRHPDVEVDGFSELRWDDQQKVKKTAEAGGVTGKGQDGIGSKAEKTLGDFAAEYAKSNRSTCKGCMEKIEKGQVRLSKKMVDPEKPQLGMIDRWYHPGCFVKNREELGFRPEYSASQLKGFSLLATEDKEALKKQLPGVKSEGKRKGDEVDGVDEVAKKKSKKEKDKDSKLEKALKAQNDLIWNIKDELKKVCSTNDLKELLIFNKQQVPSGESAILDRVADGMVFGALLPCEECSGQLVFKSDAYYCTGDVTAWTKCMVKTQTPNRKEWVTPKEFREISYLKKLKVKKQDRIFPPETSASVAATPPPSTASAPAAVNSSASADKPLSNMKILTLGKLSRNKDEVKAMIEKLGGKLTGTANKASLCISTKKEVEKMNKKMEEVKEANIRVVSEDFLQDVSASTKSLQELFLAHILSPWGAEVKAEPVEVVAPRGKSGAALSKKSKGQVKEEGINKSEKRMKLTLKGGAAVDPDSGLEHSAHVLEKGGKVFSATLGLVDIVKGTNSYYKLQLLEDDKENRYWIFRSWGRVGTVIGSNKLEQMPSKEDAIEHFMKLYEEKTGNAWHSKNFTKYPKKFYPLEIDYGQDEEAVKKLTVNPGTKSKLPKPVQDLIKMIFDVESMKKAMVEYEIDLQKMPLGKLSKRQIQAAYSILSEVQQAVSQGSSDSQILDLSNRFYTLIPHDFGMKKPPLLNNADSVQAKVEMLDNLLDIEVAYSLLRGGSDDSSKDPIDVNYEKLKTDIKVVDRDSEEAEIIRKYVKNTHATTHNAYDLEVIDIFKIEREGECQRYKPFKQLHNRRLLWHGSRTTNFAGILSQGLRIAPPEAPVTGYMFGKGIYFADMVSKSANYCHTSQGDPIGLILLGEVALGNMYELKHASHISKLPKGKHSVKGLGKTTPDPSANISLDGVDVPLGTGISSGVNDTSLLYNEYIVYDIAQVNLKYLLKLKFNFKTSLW
T5 sequence (P10635 whole entry): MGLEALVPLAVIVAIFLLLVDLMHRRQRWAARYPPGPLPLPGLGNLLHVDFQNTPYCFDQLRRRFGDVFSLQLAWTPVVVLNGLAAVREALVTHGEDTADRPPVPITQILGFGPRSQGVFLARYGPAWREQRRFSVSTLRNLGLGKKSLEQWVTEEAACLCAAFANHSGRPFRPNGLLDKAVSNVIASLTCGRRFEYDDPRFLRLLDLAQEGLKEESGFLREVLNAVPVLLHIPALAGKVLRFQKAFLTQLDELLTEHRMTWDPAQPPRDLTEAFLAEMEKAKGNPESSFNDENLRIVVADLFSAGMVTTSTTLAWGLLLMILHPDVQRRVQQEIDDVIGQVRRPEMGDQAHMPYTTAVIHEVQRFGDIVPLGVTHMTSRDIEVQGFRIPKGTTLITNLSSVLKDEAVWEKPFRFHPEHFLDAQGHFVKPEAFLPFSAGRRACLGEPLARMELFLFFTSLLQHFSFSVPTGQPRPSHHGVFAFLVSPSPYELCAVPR

Regarding `O=C1NOCc2c(-c3ccc(C4CCCN4)cc3)[nH]c3cc(F)cc1c23` (single isomer, unassigned) [Example 24_A], the half-maximal inhibitory concentration (IC50) against CYP2C19 is 17.2 µM; on CYP1A2, 29.5 µM; against CYP2C9 it was above 50 µM; on CYP3A4-M it was above 50 µM; against CYP2D6 it was 6.98 µM; against PARP1 it was 0.002 µM.

As to `CC1(c2ccc(-c3[nH]c4cc(F)cc5c4c3CONC5=O)cc2F)CCCN1` (single isomer, unassigned) [Example 26_A], the IC50 against CYP2C19 was 3.31 µM; against CYP1A2, above 50 µM; against CYP2C9, 49.7 µM; at CYP3A4-M, 14.1 µM; against CYP2D6, 20.2 µM; at PARP1 it was 0.0034 µM.

Consider `CC1(c2ccc(-c3[nH]c4cccc5c4c3CONC5=O)cc2)CCCN1` (stereo not shown) [Example 6_A], for which the IC50 at PARP1 was 0.0028 µM.

In the case of `O=C1NOCc2c(-c3ccc(C4CCCN4)c(F)c3)[nH]c3cccc1c23` (stereo not shown) [Example 11_A], the IC50 is 15.5 µM against CYP2C19; above 50 µM on CYP1A2; above 50 µM against CYP2C9; 35 µM against CYP3A4-M; 19.2 µM on CYP2D6; 0.0036 µM at PARP1.

As to `CC1(c2ccc(-c3[nH]c4cc(F)cc5c4c3CONC5=O)cc2)CCCN1` (stereo not shown) [Example 25_A], the IC50 against CYP2C19 is 8.33 µM; against CYP1A2, above 50 µM; on CYP2C9 it was above 50 µM; against CYP3A4-M, 32.9 µM; against CYP2D6, 11.6 µM; against PARP1, 0.0023 µM.
